Data on 10 molecules can be found in patent US12492188B2, “1H-benzo[D]imidazole derivatives as TLR9 inhibitors for the treatment of fibrosis” (BRISTOL-MYERS SQUIBB COMPANY, priority 2020, dated 2025).

Like-named read-outs stand apart in the source and are kept apart here.

Type in all cases: cell-based
The target of one assay is T1, human TLR9 (Homo sapiens, UniProt Q9NR96).
T1 construct: host or cells: HEK-Blue cells (HEK293-derived reporter line)
T1 sequence (Q9NR96 26-1032): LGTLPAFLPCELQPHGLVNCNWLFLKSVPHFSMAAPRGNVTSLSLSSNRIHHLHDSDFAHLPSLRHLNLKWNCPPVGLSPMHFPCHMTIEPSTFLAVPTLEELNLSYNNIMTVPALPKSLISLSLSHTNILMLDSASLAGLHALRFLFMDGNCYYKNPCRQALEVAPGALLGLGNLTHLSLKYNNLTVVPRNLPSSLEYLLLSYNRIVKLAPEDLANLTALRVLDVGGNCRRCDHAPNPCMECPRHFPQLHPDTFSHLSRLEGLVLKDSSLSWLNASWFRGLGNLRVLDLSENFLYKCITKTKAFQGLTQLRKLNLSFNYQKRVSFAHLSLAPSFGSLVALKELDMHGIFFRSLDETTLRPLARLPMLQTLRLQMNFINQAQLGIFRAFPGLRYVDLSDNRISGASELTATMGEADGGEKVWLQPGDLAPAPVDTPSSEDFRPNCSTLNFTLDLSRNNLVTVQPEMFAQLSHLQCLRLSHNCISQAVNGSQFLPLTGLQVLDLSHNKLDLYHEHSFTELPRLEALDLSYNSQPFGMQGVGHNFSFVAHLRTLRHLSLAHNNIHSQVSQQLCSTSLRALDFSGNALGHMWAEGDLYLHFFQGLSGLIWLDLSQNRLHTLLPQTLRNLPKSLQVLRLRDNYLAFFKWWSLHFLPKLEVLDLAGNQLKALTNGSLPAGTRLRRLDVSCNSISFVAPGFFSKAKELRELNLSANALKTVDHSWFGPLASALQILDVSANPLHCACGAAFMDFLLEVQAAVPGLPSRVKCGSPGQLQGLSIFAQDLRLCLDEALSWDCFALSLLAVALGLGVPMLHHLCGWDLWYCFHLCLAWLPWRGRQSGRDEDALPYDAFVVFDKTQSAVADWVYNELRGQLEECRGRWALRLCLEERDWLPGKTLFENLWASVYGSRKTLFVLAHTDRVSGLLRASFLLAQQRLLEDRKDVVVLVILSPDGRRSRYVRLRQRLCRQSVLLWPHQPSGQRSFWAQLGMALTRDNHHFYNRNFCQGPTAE
The assay is described as follows: TLR9 inhibition reporter assay (HEK-Blue cells, secreted embryonic alkaline phosphatase reporter). In short, it runs like this:
(§1)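 Cells seeded at 15000 (TLR7), 20,000 (TLR8) or 25,000 (TLR9) per well; compound 0.05 nM–50 μM, 30 min RT pre-incubation. Agonists: gardiquimod 7.5 μM, R848 15.9 μM, ODN2006 5 nM respectively. 22 h, 37 °C; SEAP via HEK-Blue Detection; % inhibition vs agonist+DMSO and known-inhibitor wells.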

A further assay addresses T2, human TLR7 (Homo sapiens, UniProt Q9NYK1).
T2 construct: host or cells: HEK-Blue cells (HEK293-derived reporter line)
T2 sequence (Q9NYK1 27-1049): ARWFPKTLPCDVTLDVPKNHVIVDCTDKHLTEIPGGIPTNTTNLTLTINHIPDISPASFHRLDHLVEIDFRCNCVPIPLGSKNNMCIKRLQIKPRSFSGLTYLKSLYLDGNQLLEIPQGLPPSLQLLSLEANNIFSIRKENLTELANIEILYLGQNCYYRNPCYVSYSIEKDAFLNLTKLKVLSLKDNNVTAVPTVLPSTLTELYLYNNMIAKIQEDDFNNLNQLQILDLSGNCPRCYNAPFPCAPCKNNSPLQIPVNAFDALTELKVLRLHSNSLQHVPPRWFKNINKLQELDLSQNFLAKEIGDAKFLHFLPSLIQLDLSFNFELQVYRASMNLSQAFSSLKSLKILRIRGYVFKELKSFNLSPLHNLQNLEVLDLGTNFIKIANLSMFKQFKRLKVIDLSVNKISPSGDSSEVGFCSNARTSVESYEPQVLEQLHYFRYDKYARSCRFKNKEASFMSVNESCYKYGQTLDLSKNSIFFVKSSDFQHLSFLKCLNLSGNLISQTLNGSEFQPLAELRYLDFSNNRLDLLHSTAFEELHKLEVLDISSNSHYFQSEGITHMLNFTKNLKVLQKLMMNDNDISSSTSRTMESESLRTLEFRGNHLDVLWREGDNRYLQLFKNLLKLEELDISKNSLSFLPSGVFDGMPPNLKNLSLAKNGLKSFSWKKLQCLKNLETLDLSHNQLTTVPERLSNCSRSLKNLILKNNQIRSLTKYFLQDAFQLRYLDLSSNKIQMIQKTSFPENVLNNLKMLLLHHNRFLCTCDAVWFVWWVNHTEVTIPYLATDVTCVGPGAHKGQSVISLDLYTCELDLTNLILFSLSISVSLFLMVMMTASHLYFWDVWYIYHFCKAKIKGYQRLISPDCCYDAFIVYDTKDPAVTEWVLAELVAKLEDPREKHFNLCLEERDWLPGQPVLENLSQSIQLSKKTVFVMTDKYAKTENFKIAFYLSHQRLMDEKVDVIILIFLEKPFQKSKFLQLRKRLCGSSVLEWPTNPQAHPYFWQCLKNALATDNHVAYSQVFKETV
The assay is described as follows: TLR7 inhibition reporter assay (HEK-Blue cells, secreted embryonic alkaline phosphatase reporter). To be noted: HEK-Blue cells overexpressing human TLR7, stimulated with gardiquimod 7.5 μM; read-out: TLR 7 IC50. In short, it runs like this: as §1

Another assay deals with T3, human TLR8 (Homo sapiens, UniProt Q9NR97).
T3 construct: host or cells: HEK-Blue cells (HEK293-derived reporter line)
T3 sequence (Q9NR97 27-1041): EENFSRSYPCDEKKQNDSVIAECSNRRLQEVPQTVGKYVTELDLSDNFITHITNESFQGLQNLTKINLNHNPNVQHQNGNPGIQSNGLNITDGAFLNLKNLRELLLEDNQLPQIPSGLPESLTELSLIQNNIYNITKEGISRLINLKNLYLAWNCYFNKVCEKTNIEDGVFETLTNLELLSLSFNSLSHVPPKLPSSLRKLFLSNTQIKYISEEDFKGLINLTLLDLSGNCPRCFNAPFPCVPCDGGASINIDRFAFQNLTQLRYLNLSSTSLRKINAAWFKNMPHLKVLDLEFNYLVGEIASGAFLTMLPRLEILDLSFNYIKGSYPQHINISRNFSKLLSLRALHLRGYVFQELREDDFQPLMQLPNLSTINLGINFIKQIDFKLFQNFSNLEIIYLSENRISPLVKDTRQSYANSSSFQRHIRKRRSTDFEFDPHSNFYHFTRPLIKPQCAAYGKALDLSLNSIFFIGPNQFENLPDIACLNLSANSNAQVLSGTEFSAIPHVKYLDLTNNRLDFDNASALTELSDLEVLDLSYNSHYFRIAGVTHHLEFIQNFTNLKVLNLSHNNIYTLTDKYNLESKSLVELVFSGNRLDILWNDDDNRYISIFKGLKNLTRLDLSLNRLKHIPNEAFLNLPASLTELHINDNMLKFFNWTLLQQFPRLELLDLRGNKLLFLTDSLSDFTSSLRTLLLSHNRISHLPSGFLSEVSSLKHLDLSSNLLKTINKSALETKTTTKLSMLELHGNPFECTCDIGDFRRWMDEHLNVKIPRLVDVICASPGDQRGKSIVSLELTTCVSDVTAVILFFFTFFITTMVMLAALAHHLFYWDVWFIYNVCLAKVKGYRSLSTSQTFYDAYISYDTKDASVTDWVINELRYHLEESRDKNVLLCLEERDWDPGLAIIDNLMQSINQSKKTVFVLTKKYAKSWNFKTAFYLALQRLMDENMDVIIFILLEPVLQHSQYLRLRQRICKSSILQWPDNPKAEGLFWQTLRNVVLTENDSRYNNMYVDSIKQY
The assay is described as follows: TLR8 inhibition reporter assay (HEK-Blue cells, secreted embryonic alkaline phosphatase reporter). To be noted: HEK-Blue cells overexpressing human TLR8, stimulated with R848 15.9 μM; read-out: TLR 8 IC50. The essentials: as §1

The mark [1] stands for this setting: HEK-Blue cells overexpressing human TLR9, stimulated with ODN2006 5 nM, read-out: TLR 9 IC50.

`COCCN1C2CCC1CC(N1CCC(c3cc4nc(-c5ccc(S(C)(=O)=O)cc5)n(C)c4cc3F)CC1)C2` (stereo not shown) [Example 258, 6-fluoro-5-(1-(8-(2-methoxyethyl)-8-azabicyclo[3.2.1]octan-3-yl)piperidin-4-yl)-1-methyl-2-(4-(methylsulfonyl)phenyl)-1H-benzo[d]imidazole]: the IC50 is 100 nM on human TLR9, 100 nM at human TLR9 (setting [1]), 18800 nM at human TLR7 and above 50000 nM at human TLR8.

With `CC(C)CN1CCC(N2CCC(c3ccc4nc(-c5ccc(S(C)(=O)=O)cc5)n(C)c4c3F)CC2)CC1` [Example 259, 7-fluoro-6-(1′-isobutyl-[1,4′-bipiperidin]-4-yl)-1-methyl-2-(4-(methylsulfonyl)phenyl)-1H-benzo[d]imidazole], the IC50 at human TLR9 was 500 nM; at human TLR9 (setting [1]) it was 500 nM; at human TLR7 it was above 50000 nM; on human TLR8, above 50000 nM.

Take `Cn1c(-c2ccc(S(C)(=O)=O)cc2)nc2ccc(C3CCN(C4CCN(C5CC5)CC4)CC3)c(F)c21` [Example 260, 6-(1′-cyclopropyl-[1,4′-bipiperidin]-4-yl)-7-fluoro-1-methyl-2-(4-(methylsulfonyl)phenyl)-1H-benzo[d]imidazole]: the IC50 is 660 nM on human TLR9, 660 nM at human TLR9 (setting [1]), 21500 nM at human TLR7 and above 50000 nM on human TLR8.

Regarding `Cn1c(-c2ccc(S(C)(=O)=O)cc2)nc2ccc(C3CCN(C4CCN(CC5CC5)CC4)CC3)c(F)c21` [Example 261, 6-(1′-(cyclopropylmethyl)-[1,4′-bipiperidin]-4-yl)-7-fluoro-1-methyl-2-(4-(methylsulfonyl)phenyl)-1H-benzo[d]imidazole], the IC50 at human TLR9 was 150 nM; on human TLR9 (setting [1]), 154 nM; on human TLR7, 7900 nM; on human TLR8, above 50000 nM.

In the case of `Cn1c(-c2ccc(S(C)(=O)=O)cc2)nc2ccc(C3CCN(C4CCN(C5CCC5)CC4)CC3)c(F)c21` [Example 262, 6-(1′-cyclobutyl-[1,4′-bipiperidin]-4-yl)-7-fluoro-1-methyl-2-(4-(methylsulfonyl)phenyl)-1H-benzo[d]imidazole], the IC50 on human TLR9 was 170 nM; at human TLR9 (setting [1]), 171 nM; on human TLR7, 14100 nM; on human TLR8 it was above 50000 nM.

As to `Cn1c(-c2ccc(S(C)(=O)=O)cc2)nc2ccc(C3CCN(C4CCN(C5CCOCC5)CC4)CC3)c(F)c21` [Example 264, 7-fluoro-1-methyl-2-(4-(methylsulfonyl)phenyl)-6-(1′-(tetrahydro-2H-pyran-4-yl)-[1,4′-bipiperidin]-4-yl)-1H-benzo[d]imidazole], the IC50 on human TLR9 is 280 nM; on human TLR9 (setting [1]) it was 281 nM; on human TLR7 it was 2300 nM; at human TLR8 it was 20700 nM.

Consider `COCCN1CCC(N2CCC(c3ccc4nc(-c5ccc(S(C)(=O)=O)cc5)n(C)c4c3F)CC2)CC1` [Example 265, 7-fluoro-6-(1′-(2-methoxyethyl)-[1,4′-bipiperidin]-4-yl)-1-methyl-2-(4-(methylsulfonyl)phenyl)-1H-benzo[d]imidazole], for which the IC50 was 1000 nM on human TLR9, 1040 nM at human TLR9 (setting [1]), 7600 nM at human TLR7 and above 50000 nM at human TLR8.

In the case of `Cn1c(-c2ccc(S(C)(=O)=O)cc2)nc2ccc(C3CCN(C4CC5CCC(C4)N5CC4CC4)CC3)c(F)c21` (stereo not shown) [Example 268, 6-(1-(8-(cyclopropylmethyl)-8-azabicyclo[3.2.1]octan-3-yl)piperidin-4-yl)-7-fluoro-1-methyl-2-(4-(methylsulfonyl)phenyl)-1H-benzo[d]imidazole], the IC50 is 60 nM against human TLR9, 60 nM at human TLR9 (setting [1]), 27600 nM at human TLR7 and above 50000 nM at human TLR8.

With `Cn1c(-c2ccc(S(C)(=O)=O)cc2)nc2ccc(C3CCN(C4CC5CCC(C4)N5CC4CC4)CC3)c(F)c21` (stereo not shown) [Example 269, 6-(1-(8-(cyclopropylmethyl)-8-azabicyclo[3.2.1]octan-3-yl)piperidin-4-yl)-7-fluoro-1-methyl-2-(4-(methylsulfonyl)phenyl)-1H-benzo[d]imidazole], the IC50 on human TLR9 was 180 nM; on human TLR9 (setting [1]) it was 176 nM; at human TLR7 it was 12000 nM; at human TLR8, 21500 nM.

Turning to `Cn1c(-c2ccc(S(C)(=O)=O)cc2)nc2ccc(C3CCN(C4CC5CCC(C4)N5C4COC4)CC3)c(F)c21` (stereo not shown) [Example 273, 7-fluoro-1-methyl-2-(4-(methylsulfonyl)phenyl)-6-(1-(8-(oxetan-3-yl)-8-azabicyclo[3.2.1]octan-3-yl)piperidin-4-yl)-1H-benzo[d]imidazole], the IC50 is 300 nM on human TLR9, 303 nM at human TLR9 (setting [1]), 7500 nM on human TLR7 and above 50000 nM at human TLR8.
